Source: patent US20250270202A1, “SUBSTITUTED 4-AMINOISOINDOLINE COMPOUND, PREPARATION METHOD THEREFOR, PHARMACEUTICAL COMPOSITION THEREOF, AND USE THEREOF” (SHANGHAI INSTITUTE OF MATERIA MEDICA, CHINESE ACADEMY OF …, priority 2022, published 2025)
Like-named read-outs stand apart in the source and are kept apart here.

What was measured:
Assay type in all cases: cell-based
[1] = system: MM.1S cells; test: Effect of the compound on MM.1S cell proliferation (MTS, 7 days); details: Homo sapiens, MM1.S
Protocol: MM.1S cells were cultured in 1640 medium supplemented with 10% fetal bovine serum, then collected and diluted to the desired cell concentration after 7 days of treatment. A total of 180 μL of cell suspension was added to each well in a 96-well cell plate, ensuring 20,000 cells per well. For the control group, 20 μL of 0.2% DMSO was added to each well. Compounds were diluted in a 5-step gradient from a 10 mM stock solution, and 20 μL of each dilution was added to the compound-containing wells (with a final DMSO concentration of 0.2%). The cells were incubated in a 37° C., 5% CO2 incubator for 7 days. Afterward, 20 μL of the MTS reagent (Promega, G5430) was added to each well, followed by incubation for 3-4 hours in a 37° C., 5% CO2 incubator. Absorbance at 490 nm was measured using a microplate reader, with 690 nm absorbance as the background. The final raw data was calculated as OD490-OD690. The compound inhibition rate was calculated using the formula: […]
The IC50 for the compound's proliferative inhibition was fitted using GraphPad Prism 5.0. The experiment was repeated three times, and the average and standard deviation were calculated using three parallel experiments per trial.

[2] = system: Mino cells; test: Inhibition of cell proliferation of Mino cells (MTS, 3 days); details: Homo sapiens, MINO
Protocol: Mino cells were cultured with RPMI-1640 medium supplemented with 15% fetal bovine serum, and collected. The cell concentration was diluted according to a 3-day treatment period, and 90 μL of the cell suspension was added to each well of a 96-well plate, resulting in 8000 cells per well. For control wells, 10 μL of DMSO at a final concentration of 0.2% was added. The compounds were diluted in a 5-fold gradient from a 10 mM stock solution, and 10 μL of each compound solution was added to the experimental wells (with a final DMSO concentration of 0.2%). The cells were incubated in a 37° C., 5% CO2 incubator for 3 days. After preparing the reaction mixture using the MTS reagent kit (Promega, G5430), 20 μL was added to each well, and the cells were incubated for 3-4 hours at 37° C., 5% CO2.
The absorbance at 490 nm was read using a microplate reader, with the absorbance at 690 nm used as the background. The final raw data was calculated as OD490-OD690. The inhibition rate of the compounds was calculated using the formula: Inhibition rate=(OD DMSO−OD compound)/(OD DMSO−OD blank)×100%. The IC50 values for cell proliferation inhibition of the compounds were fitted using GraphPad Prism 5.0. The experiment was repeated three times, with the average and standard deviation calculated from three parallel experiments each time.

[3] = system: MV-4-11 cells; test: Inhibition of MV-4-11 cell proliferation (MTS, 7 days); details: Homo sapiens
Protocol: MV-4-11 cells were cultured in IMDM with 10% fetal bovine serum, collected, and diluted to the appropriate cell concentration for a 7-day treatment period. A 96-well plate was used, and 180 μL of cell suspension was added to each well, resulting in a cell count of 2,000 per well. For the control wells, 20 μL of DMSO at a final concentration of 0.2% was added. The compounds were diluted from a 10 mM stock solution in a five-fold gradient, and 20 μL was added to the compound wells (with a final DMSO concentration of 0.2%). The cells were incubated in a 37° C., 5% CO2 incubator for 7 days. After preparing the reaction solution using the MTS reagent kit (Promega, G5430), 20 μL was added to each well, and the cells were incubated in the incubator for 3-4 hours. The absorbance at 490 nm was measured using a microplate reader, with the absorbance at 690 nm as the background value. The final data was calculated as OD490-OD690. The inhibition rate of the compounds was calculated using the formula: […]
The IC50 values for proliferation inhibition were calculated using GraphPad Prism 5.0. The experiments were repeated three times, with three parallel experiments for each, and the mean and standard deviation were calculated.
The cell activity test results are shown in Table 3: A indicates IC50<1 μM, B indicates 1 µM≤IC50≤20 μM, and C indicates IC50>20 μM.

[4] = 168 h, 7 days, MTS, Table 1, read-out: MM.1S Cells Inhibition Activity IC50
[5] = Table 4, read-out: Inhibitory Activity of Compounds on Cell Proliferation MM.1S IC50
[6] = 72 h, 3 days, MTS, Table 2, read-out: Mino Cells Inhibition Activity IC50
[7] = Table 4, read-out: Inhibitory Activity of Compounds on Cell Proliferation Mino IC50
[8] = MV4-11, 168 h, 7 days, MTS, Table 3, read-out: MV-4-11 Cells Inhibition Activity IC50
[9] = MV4-11, Table 4, values in nM, read-out: Inhibitory Activity of Compounds on Cell Proliferation MV-4-11 IC50

| IC50 [1, 4] [nM] | IC50 [1, 5] [nM] | IC50 [3, 8] [nM] | IC50 [3, 9] [nM] | IC50 ([3]; MV4-11, Table 4, values in μM, read-out: Inhibitory Activity of Compounds on Cell Proliferation MV-4-11 IC50) [nM] | SMILES | IC50 [2, 6] [nM] | IC50 [2, 7] [nM] |
| --- | --- | --- | --- | --- | --- | --- | --- |
| < 15 | – | < 1000 | – | – | O=C1CCC(N2C(=O)c3cccc(NCc4cnc(C5CCN(C(=O)CC67CC8CC(CC(C8)C6)C7)CC5)o4)c3C2=O)C(=O)N1 (stereo not drawn) [Example 11] | < 60 | – |
| < 15 | – | < 1000 | – | – | COc1ccc(-c2ncc(CNc3cccc4c3C(=O)N(C3CCC(=O)NC3=O)C4=O)o2)cc1 (stereo not drawn) [Example 16] | < 60 | – |
| < 15 | – | < 1000 | – | – | O=C1CCC(N2C(=O)c3cccc(NCc4cnc(-c5cccc(-c6ccccc6)c5)o4)c3C2=O)C(=O)N1 (stereo not drawn) [Example 18] | < 60 | – |
| < 15 | – | < 1000 | – | – | Cc1ccc(-c2ncc(CNc3cccc4c3C(=O)N(C3CCC(=O)NC3=O)C4=O)o2)cc1 (stereo not drawn) [Example 19] | < 60 | – |
| < 15 | – | < 1000 | – | – | Cc1cccc(-c2ncc(CNc3cccc4c3C(=O)N(C3CCC(=O)NC3=O)C4=O)o2)c1 (stereo not drawn) [Example 20] | < 60 | – |
| 15 to 30 | – | < 1000 | – | – | Cc1ccc(-c2cnc(CNc3cccc4c3C(=O)N(C3CCC(=O)NC3=O)C4=O)o2)cc1 (stereo not drawn) [Example 24] | > 120 | – |
| < 15 | < 15 | < 1000 | – | < 1000 | O=C1CCC(N2C(=O)c3cccc(NCc4cnc(-c5ccc(Cl)cc5)o4)c3C2=O)C(=O)N1 (stereo not drawn) [Example 25] | < 60 | < 60 |
| < 15 | – | < 1000 | – | – | O=C1CCC(N2C(=O)c3cccc(NCc4cnc(-c5ccc(F)cc5)o4)c3C2=O)C(=O)N1 (stereo not drawn) [Example 26] | < 60 | – |
| < 15 | – | < 1000 | – | – | O=C1CCC(N2C(=O)c3cccc(NCc4cnc(-c5ccccc5Cl)o4)c3C2=O)C(=O)N1 (stereo not drawn) [Example 27] | 60 to 120 | – |
| < 15 | – | < 1000 | – | – | C=Cc1ccc(-c2ncc(CNc3cccc4c3C(=O)N(C3CCC(=O)NC3=O)C4=O)s2)cc1 (stereo not drawn) [Example 31] | < 60 | – |
| < 15 | – | < 1000 | – | – | O=C1CCC(N2C(=O)c3cccc(NCc4cnc(-c5ccc(Cl)cc5)s4)c3C2=O)C(=O)N1 (stereo not drawn) [Example 32] | 60 to 120 | – |
| 30 to 150 | – | < 1000 | – | – | O=C1CCC(N2C(=O)c3cccc(NCc4ncc(-c5ccc(F)cc5)s4)c3C2=O)C(=O)N1 (stereo not drawn) [Example 34] | > 120 | – |
| < 15 | – | < 1000 | – | – | O=C1CCC(N2C(=O)c3cccc(NCc4cnc(-c5ccc(OC(F)(F)F)cc5)s4)c3C2=O)C(=O)N1 (stereo not drawn) [Example 35] | < 60 | – |
| 30 to 150 | – | < 1000 | – | – | CC(C)(C)C(=O)OCN1C(=O)CCC(N2C(=O)c3cccc(NCc4cnc(-c5ccc(Cl)cc5)o4)c3C2=O)C1=O (stereo not drawn) [Example 40, (3-(4-(((2-(4-Chlorophenyl)-5-oxazolyl)methyl)amino)-1,3-dioxoisoindol-2-yl)-2,6-dioxopiperidin-1-yl)methyl Neopentyl Ester] | > 120 | – |
| 30 to 150 | – | > 20000 | – | – | O=C1CCC(N2C(=O)c3cccc(NCc4cnc(-c5ccc(Cl)nc5)o4)c3C2=O)C(=O)N1 (stereo not drawn) [Example 44] | > 120 | – |
| 15 to 30 | – | 1000 to 20000 | – | – | [2H]c1c([2H])c([2H])c(-c2ncc(CNc3cccc4c3C(=O)N(C3CCC(=O)NC3=O)C4=O)s2)c([2H])c1[2H] (stereo not drawn) [Example 46] | > 120 | – |

The next lines start with the molecule.

| SMILES | IC50 [1, 4] [nM] | IC50 [1, 5] [nM] | IC50 [3, 8] [nM] | IC50 [3, 9] [nM] | IC50 ([3]; MV4-11, Table 4, values in μM, read-out: Inhibitory Activity of Compounds on Cell Proliferation MV-4-11 IC50) [nM] | IC50 [2, 6] [nM] | IC50 [2, 7] [nM] |
| --- | --- | --- | --- | --- | --- | --- | --- |
| CC(C)(C)C(=O)N1CCC(c2ncc(CNc3cccc4c3C(=O)N(C3CCC(=O)NC3=O)C4=O)o2)CC1 (stereo not drawn) [Example 9] | < 15 | 8.8 | < 1000 | 782 | – | > 120 | 141 |
| CC1(C(=O)N2CCC(c3ncc(CNc4cccc5c4C(=O)N(C4CCC(=O)NC4=O)C5=O)o3)CC2)CCCCC1 (stereo not drawn) [Example 10] | < 15 | – | 1000 to 20000 | – | – | 60 to 120 | – |
| O=C1CCC(N2C(=O)c3cccc(NCc4cnc(C5CCN(Cc6ccc(F)cc6)CC5)o4)c3C2=O)C(=O)N1 (stereo not drawn) [Example 12] | 30 to 150 | – | < 1000 | – | – | > 120 | – |
| N#Cc1ccc(CN2CCC(c3ncc(CNc4cccc5c4C(=O)N(C4CCC(=O)NC4=O)C5=O)o3)CC2)c(F)c1 (stereo not drawn) [Example 13] | 30 to 150 | – | 1000 to 20000 | – | – | > 120 | – |
| O=C1CCC(N2C(=O)c3cccc(NCc4cnc(C5CCN(Cc6ccc(OC(F)(F)F)cc6)CC5)o4)c3C2=O)C(=O)N1 (stereo not drawn) [Example 14] | 15 to 30 | – | < 1000 | – | – | 60 to 120 | – |
| O=C1CCC(N2C(=O)c3cccc(NCc4cnc(-c5ccc(OC(F)(F)F)cc5)o4)c3C2=O)C(=O)N1 (stereo not drawn) [Example 15] | < 15 | 6.4 | < 1000 | 750 | – | 60 to 120 | 60.5 |
| COc1cccc(-c2ncc(CNc3cccc4c3C(=O)N(C3CCC(=O)NC3=O)C4=O)o2)c1 (stereo not drawn) [Example 17] | < 15 | – | 1000 to 20000 | – | – | 60 to 120 | – |
| Cc1ccccc1-c1ncc(CNc2cccc3c2C(=O)N(C2CCC(=O)NC2=O)C3=O)o1 (stereo not drawn) [Example 21] | < 15 | – | 1000 to 20000 | – | – | > 120 | – |
| O=C1CCC(N2C(=O)c3cccc(NCc4cnc(-c5ccc(Br)cc5)o4)c3C2=O)C(=O)N1 (stereo not drawn) [Example 23] | < 15 | – | < 1000 | – | – | > 120 | – |
| O=C1CCC(N2C(=O)c3cccc(NCc4cnc(-c5cccc(F)c5)s4)c3C2=O)C(=O)N1 (stereo not drawn) [Example 28] | 30 to 150 | – | 1000 to 20000 | – | – | > 120 | – |
| Cc1ccc(-c2ncc(CNc3cccc4c3C(=O)N(C3CCC(=O)NC3=O)C4=O)s2)cc1 (stereo not drawn) [Example 29] | < 15 | – | < 1000 | – | – | > 120 | – |
| N#Cc1cccc(-c2ncc(CNc3cccc4c3C(=O)N(C3CCC(=O)NC3=O)C4=O)s2)c1 (stereo not drawn) [Example 30] | 15 to 30 | – | 1000 to 20000 | – | – | > 120 | – |
| N#Cc1ccc(-c2ncc(CNc3cccc4c3C(=O)N(C3CCC(=O)NC3=O)C4=O)s2)cc1 (stereo not drawn) [Example 33, 4-(5-(((2-(2,6-dioxopiperidin-3-yl)-1,3-dioxoisoindolin-4-yl)amino)methyl)thiazol-2-yl)benzonitrile] | < 15 | – | < 1000 | – | – | 60 to 120 | – |
| COc1ccc(-c2ncc(CNc3cccc4c3C(=O)N(C3CCC(=O)NC3=O)C4=O)s2)c(OC)c1 (stereo not drawn) [Example 36] | 15 to 30 | – | < 1000 | – | – | > 120 | – |
| CC(C)(C)C(=O)OCN1C(=O)CCC(N2C(=O)c3cccc(NCc4cnc(-c5ccc(C(F)(F)F)cc5)s4)c3C2=O)C1=O (stereo not drawn) [Example 39] | 15 to 30 | – | < 1000 | – | – | 60 to 120 | – |
| CC(C)(C)C(=O)OCN1C(=O)CCC(N2C(=O)c3cccc(NCc4cnc(C5CCN(C(=O)C(C)(C)C)CC5)o4)c3C2=O)C1=O (stereo not drawn) [Example 41] | 15 to 30 | – | 1000 to 20000 | – | – | > 120 | – |
| O=C1CCC(N2C(=O)c3cccc(NCc4cnc(-c5ccc(Cl)cn5)s4)c3C2=O)C(=O)N1 (stereo not drawn) [Example 43] | < 15 | – | < 1000 | – | – | > 120 | – |
